Laboratory results reported in patent US6608189B1, “Fluorescent protein sensors for measuring the pH of a biological sample” (University of California, priority 1998, dated 2003).

What was measured:
[1] = tested on: mitochondrial matrix of HeLa cells; assay: mitochondrial matrix pH with mito-YFP H148Q in HeLa cells; type: cell-based; conditions: 10 uM in high KCl titration buffer
Description: The YFP H148Q mutant has a pKa of about 7.4, which is intermediate between the pKa of EYFP and YFP mutant H148G. […] Fluorescence was measured over time (beginning at t≈0), including following the addition of 10 μM nigericin in high KCL titration buffer at t≈500 seconds.
Fluorescence decreased to about 175 units at t=1000 seconds by addition of nigericin, which lowered the pH to about 6.9. Fluorescence then returned stepwise to 400 units with each change of the extracellular medium.

[2] = tested on: mitochondrial matrix of HeLa cells; assay: pH in the mitochondrial matrix with EYFP-mito; type: cell-based; conditions: HeLa cells expressing EYFP-mito
Description: To measure pH in the mitochondrial matrix using mutant GFP sensor proteins, HeLa cells and neonatal rat cardiomyocytes were transfected with the fluorescent protein pH sensor EYFP-mito. A Bio-Rad MRC-1000 confocal microscope was used for analysis of the targeted protein. […] In situ pH titration was performed with nigericin/monensin as described in Example 3.

[3] = tested on: mitochondrial matrix of HeLa cells; assay: mitochondrial matrix pH with mito-YFP H148G in HeLa cells; type: cell-based; conditions: 5 uM
Description: YFP H148G expression was monitored by observing fluorescence over time. Mitochondrial pH was also monitored by pH titration as described in Example 3 using nigericin and monensin.
5 μM CCCp was added at about t≈300 seconds. […] Then a calibration was performed by perfusing the cells with extracellular medium of pH 7, 7.5, 8, and 8.35 containing the ionophores nigericin plus monensin to equilibrate mitochondrial pH and extracellular pH. Fluorescence in mitochondria increased stepwise with each change of extracellular pH.

[4] = tested on: mitochondrial matrix of chick skeletal myotubes; assay: mitochondrial matrix pH with mito-YFP H148G in chick skeletal myotubes; type: cell-based; conditions: 2 uM, t about 1400 seconds
Source text: Fluorescence was also examined, and pH measured, in primary cultures of chick skeletal myotubes transfected with the mito-YFP H148G mutant. […] Thereafter fluorescence continued to be observed during calibration at ph 6.9, 7.6 and 8.0.

[5] = tested on: mitochondria of HeLa cells; assay: GFP T203I as pH-insensitive reference in mitochondria of HeLa cells; type: cell-based; conditions: control experiments
Description: To identify a GFP sensor protein suitable for use as a reference protein for measuring mitochondrial matrix pH, the GFP mutant T203I was expressed in the mitochondria of HeLa cells.
Fluorescence of HeLa cells transfected with the GFP T203I mutant was monitored for about 400 seconds using an excitation ratio of 480 nm/400 nm. 10 μM CCCP was then added to the cells, and fluorescence was monitored for an additional 250 seconds. […] In control experiments, it was observed that addition of CCCP corresponded to a drop in pH of about 1 unit. Thus, the GFP T203I mutant is suitable for use as a reference, pH-insensitive mutant.

HeLa cells = assay: pH in cytosol and nucleus of cells expressing EYFP; type: cell-based; conditions: reversible on wash-out
Description: HeLa cells and AT-20 cells grown on glass coverslips were transiently lipo-transfected (Lipofectin™, GIBCO) with polynucleotide constructs encoding EYFP.
(§1) Cells were imaged between 2 and 4 days after transfection at 22° C. with a cooled charge-coupled device camera (Photometrices, Tucson, Ariz.) as described in Miyawaki et al., Nature 388:882, (1997). The interference filters (Omega Optical and Chroma Technology, Brattleboro, Vt.) used for excitation and emission were 440 ECFP; 480 535 EGFP or EYFP. The dichroic mirrors were 455 DCLP for ECFP and 505 DCLP for EGFP or EYFP. Regions of interest were selected manually, and pixel intensities were spatially averaged after background subtraction. A binning of 2 was used to improve signal/noise and minimize photodamage and photoisomerization of EYFP. High KCl buffer plus 5 μM each of the ionophores nigericin (Fluka) and monensin (Calbiochem) was used for in situ titrations in living cells. Cells were loaded with cytosolic pH indicators by incubation with 3 μM carboxy-SNARF/AM or BCECF/AM (Molecular Probes) for 45 minutes, then washed for 30 minutes, all at 22° C.
Calibration of fluorescence intensity with pH in situ was accomplished with a mix of the alkali cation/H+ ionophores nigericin and monensin in bath solutions of defined pH and high K+. Fluorescence equilibrated within 1-4 minutes after each exchange of solution.

[6] = biological target: YFP (yellow fluorescent protein; GFP quadruple mutant T203Y/S65G/V68L/S72A, also carrying Q80R) (Aequorea victoria) [GFP: P42212]; assay: X-ray crystal structure of YFP, largest contact area with an adjacent molecule
[7] = tested on: Golgi lumen of HeLa cells; assay: ratiometric Golgi pH with GT-EYFP and GT-ECFP; type: cell-based; conditions: cotransfected HeLa cells
Source text: Quantitative measurements of fluorescence with nonratiometric indicators can suffer from artifacts as a result of cell movement or focusing. To correct for these effects, the cyan-emitting mutant GT-ECFP was co-transfected into cells along with GT-EYFP. ECFP has excitation and emission peaks that can be separated from those of EYFP by appropriate filters. In addition, ECFP is less pH-sensitive than EYFP (see FIG. 2B).
Although the ratio of EYFP to ECFP emission varied between cells, probably reflecting a different concentration of GT-EYFP and GT-ECFP in the Golgi lumen, it changed with pH as expected (FIG. 3B). Bafilomcin A1 raised the GT-EYFP/GT-ECFP emission ratio, i.e, it raised pHG.

[8] = tested on: Golgi lumen of HeLa cells; assay: pH in the Golgi lumen with GT-EYFP; type: cell-based; conditions: HeLa cells expressing GT-EYFP
Description: as §1
The pH of the Golgi lumen was measured by transfecting HeLa or AT-20 cells with the constructs GT-ECFP, GT-EGFP, or GT-EYFP. Bright juxtanuclear fluorescence was observed, with little increase in diffuse staining above autofluorescnce in most cells.
The pH gradient across the Golgi membrane is maintained by the electrogenic ATP-dependent H^+ pump (V-ATPase). The V-ATPase generates a ΔpH (acidic inside) and Δψ(positive inside), which opposes further H^+ transport. The movement of counter-ions, Cl^− in (or K^+ out), with H^+ uptake would shunt the Δψ, allowing a larger ΔpH to be generated. These mechanisms were investigated in intact single HeLa cells transfected with GT-EYFP.

macrophage phagosomes = conditions: cited from earlier work

With CO[C@@H]1C[C@@H](C[C@H]2CC[C@H](C)[C@H]([C@@H](C)C(=O)O)O2)O[C@]2(O[C@](C)([C@H]3CC[C@@](C)([C@@H]4O[C@@H]([C@H]5O[C@@](O)(CO)[C@H](C)C[C@@H]5C)C[C@@H]4C)O3)C[C@H]2C)[C@@H]1C [nigericin] the “mitochondrial pH after addition” value [1] was “about 6.9”.
In the case of N#CC(C#N)=NNc1cccc(Cl)c1 [CCCP, carbonylcyanide m-chlorophenylhydrazone], the “mitochondrial pH after acidification by the protonophore” value [2] is reported as roughly 7, the “mitochondrial pH after addition” value [3] is reported as 7.0 and the “mitochondrial pH after addition” value [4] is reported as 6.9. The “drop in pH on addition” value [5] was “about 1 unit”.
For CC(O)C(=O)O (stereo not shown) [lactate], the “change of EYFP fluorescence (pH) on perfusion” value (HeLa cells) was “decrease in fluorescence”.
In the case of “YFP (yellow fluorescent protein; GFP quadruple mutant T203Y/S65G/V68L/S72A, also carrying Q80R) (from UniProt P42212 1-238)”, the contact area on one monomer surface [6] is reported as 722 Å2.
In the case of CO/C1=C\C(C)=C\[C@@H](C)[C@@H](O)[C@@H](C)C/C(C)=C/C=C/[C@H](OC)[C@@H]([C@@H](C)[C@@H](O)[C@H](C)[C@@]2(O)C[C@@H](O)[C@H](C)[C@@H](C(C)C)O2)OC1=O [bafilomycin A1], the “GT-EYFP/GT-ECFP emission ratio (pHG)” value [7] is reported as “raised”, the “increase of pHG” value ([8]; 0.2 uM) is reported as “about 0.6 units” and the pHG after treatment ([8]; 0.2 uM, n=12 cells) is reported as 7.16. The “initial rate of Golgi alkalinization” value ([8]; n=12 cells) was 0.52 pH units per minute and the “rate of alkalinization reported for other acidic compartments” value (macrophage phagosomes) was 0.09 pH/min.
With Cl.N [NH4Cl] the “change of EYFP fluorescence (pH) on perfusion” value (HeLa cells) was “increase in fluorescence”.
